Test results reported in patent US9938264B2, “Proteolysis targeting chimera compounds and methods of preparing and using same” (YALE UNIVERSITY, priority 2015, dated 2018).

Experiments:
[1] = target: T1, c-ABL (Homo sapiens, UniProt P00519); assay: c-ABL degradation in K562 cells by immunoblot; type: cell-based; settings: for concentration from which degradation of c-ABL is observed: 24 hrs, immunoblot; for decrease (degradation) of c-ABL: at 1 μM PROTAC
T1 construct: endogenous in cells; host or cells: K562 (ATCC)
Experimental: (§1) K562 cells were obtained from ATCC and were grown at 37° C., 5% CO2 in Iscove's Modified Dulbecco's Media (IMDM) supplemented with 10% FBS, 100 U/mL penicillin and 100 μg/mL streptomycin. HEK293 and SK-BR-3 cells were obtained from ATCC and were grown at 37° C., 5% CO2 in Dulbecco's Modified Eagle's Media (DMEM) supplemented with 10% FBS, 100 U/mL penicillin and 100 μg/mL streptomycin.
(§2) K562 cells (1-1.5×10^6) were treated for 24 hours with the indicated compounds solubilized in DMSO. The cells were collected at 300 g for 3 min. […] The total protein concentrations were determined by Pierce BCA Protein Assay and […] of protein was loaded onto 10% Tris-Glycine gels. After standard gel electrophoresis, the separated proteins were transferred to nitrocellulose by wet transfer. The immunoblots were then processed by standard procedures and incubated with the respective antibodies. Band intensities were quantified by Bio-Rad's Image Lab software.

[2] = target: T2, non-phosphorylated c-ABL kinase domain (Homo sapiens, UniProt P00519); assay: KinomeScan in vitro binding affinity (Kd), non-phosphorylated c-ABL kinase domain; settings: Table 2, read-out: ABL (non-phosphorylated)
T2 construct: phosphorylated and non-phosphorylated c-ABL kinase domain; purchased DiscoverRx Corporation (KinomeScan platform)
T2 sequence (P00519 242-493 limits assumed): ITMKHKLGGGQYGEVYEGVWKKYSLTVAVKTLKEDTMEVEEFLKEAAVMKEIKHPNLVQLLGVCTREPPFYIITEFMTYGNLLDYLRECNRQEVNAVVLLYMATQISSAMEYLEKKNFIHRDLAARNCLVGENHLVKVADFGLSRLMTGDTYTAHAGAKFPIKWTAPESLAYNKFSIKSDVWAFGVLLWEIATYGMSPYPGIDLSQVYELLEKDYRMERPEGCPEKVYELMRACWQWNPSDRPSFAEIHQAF
Experimental: (§3) PROTAC in vitro binding affinities (Kd) to phosphorylated and non-phosphorylated c-ABL kinase domain were determined using the KinomeScan platform (DiscoverRx Corporation). The compounds were solubilized in DMSO and sent to DiscoverRx Corporation as a 10 μM stock solution.

[3] = target: T3, BCR-ABL (Homo sapiens, UniProt P00519+P11274); assay: BCR-ABL degradation in K562 cells by immunoblot; type: cell-based
T3 construct: endogenous in cells; host or cells: K562 (ATCC)
Experimental: as §1, §2

[4] = target: T4, phosphorylated c-ABL kinase domain (Homo sapiens, UniProt P00519); assay: KinomeScan in vitro binding affinity (Kd), phosphorylated c-ABL kinase domain; settings: Table 2, read-out: ABL (phosphorylated)
T4 construct: phosphorylated and non-phosphorylated c-ABL kinase domain; purchased DiscoverRx Corporation (KinomeScan platform)
T4 sequence (P00519 242-493 limits assumed): T2 sequence (P00519 242-493 limits assumed)
Experimental: as §3

T1 sequence (P00519 whole entry): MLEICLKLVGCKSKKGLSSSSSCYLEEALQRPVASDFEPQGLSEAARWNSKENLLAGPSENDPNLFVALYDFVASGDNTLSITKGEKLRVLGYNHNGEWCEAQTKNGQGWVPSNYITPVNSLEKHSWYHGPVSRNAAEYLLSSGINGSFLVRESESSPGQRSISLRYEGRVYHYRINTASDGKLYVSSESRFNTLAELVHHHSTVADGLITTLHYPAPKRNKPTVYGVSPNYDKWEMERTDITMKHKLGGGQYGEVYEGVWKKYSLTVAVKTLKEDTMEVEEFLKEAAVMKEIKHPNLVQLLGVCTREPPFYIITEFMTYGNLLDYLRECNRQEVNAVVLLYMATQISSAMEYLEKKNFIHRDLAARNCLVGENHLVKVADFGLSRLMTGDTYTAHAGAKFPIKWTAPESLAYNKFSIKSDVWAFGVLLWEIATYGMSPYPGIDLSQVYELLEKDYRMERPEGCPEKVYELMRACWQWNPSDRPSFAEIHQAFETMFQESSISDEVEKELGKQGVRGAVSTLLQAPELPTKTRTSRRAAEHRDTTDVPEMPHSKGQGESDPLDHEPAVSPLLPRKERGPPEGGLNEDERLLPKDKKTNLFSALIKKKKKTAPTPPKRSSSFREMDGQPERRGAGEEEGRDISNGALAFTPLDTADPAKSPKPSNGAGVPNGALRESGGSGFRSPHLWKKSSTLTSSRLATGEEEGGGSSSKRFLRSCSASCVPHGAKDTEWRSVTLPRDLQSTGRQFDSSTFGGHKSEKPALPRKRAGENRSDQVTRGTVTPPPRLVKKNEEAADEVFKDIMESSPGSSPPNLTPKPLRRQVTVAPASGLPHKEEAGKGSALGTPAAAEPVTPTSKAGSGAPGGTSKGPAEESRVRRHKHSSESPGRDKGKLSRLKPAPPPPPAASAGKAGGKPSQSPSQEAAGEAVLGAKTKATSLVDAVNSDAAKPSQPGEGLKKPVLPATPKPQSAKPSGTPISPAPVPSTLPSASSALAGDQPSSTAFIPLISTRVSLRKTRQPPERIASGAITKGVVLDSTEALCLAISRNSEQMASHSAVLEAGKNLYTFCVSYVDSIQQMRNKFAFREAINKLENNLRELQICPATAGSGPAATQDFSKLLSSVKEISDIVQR
T3 sequence (P11274+P00519 fused, change not shown): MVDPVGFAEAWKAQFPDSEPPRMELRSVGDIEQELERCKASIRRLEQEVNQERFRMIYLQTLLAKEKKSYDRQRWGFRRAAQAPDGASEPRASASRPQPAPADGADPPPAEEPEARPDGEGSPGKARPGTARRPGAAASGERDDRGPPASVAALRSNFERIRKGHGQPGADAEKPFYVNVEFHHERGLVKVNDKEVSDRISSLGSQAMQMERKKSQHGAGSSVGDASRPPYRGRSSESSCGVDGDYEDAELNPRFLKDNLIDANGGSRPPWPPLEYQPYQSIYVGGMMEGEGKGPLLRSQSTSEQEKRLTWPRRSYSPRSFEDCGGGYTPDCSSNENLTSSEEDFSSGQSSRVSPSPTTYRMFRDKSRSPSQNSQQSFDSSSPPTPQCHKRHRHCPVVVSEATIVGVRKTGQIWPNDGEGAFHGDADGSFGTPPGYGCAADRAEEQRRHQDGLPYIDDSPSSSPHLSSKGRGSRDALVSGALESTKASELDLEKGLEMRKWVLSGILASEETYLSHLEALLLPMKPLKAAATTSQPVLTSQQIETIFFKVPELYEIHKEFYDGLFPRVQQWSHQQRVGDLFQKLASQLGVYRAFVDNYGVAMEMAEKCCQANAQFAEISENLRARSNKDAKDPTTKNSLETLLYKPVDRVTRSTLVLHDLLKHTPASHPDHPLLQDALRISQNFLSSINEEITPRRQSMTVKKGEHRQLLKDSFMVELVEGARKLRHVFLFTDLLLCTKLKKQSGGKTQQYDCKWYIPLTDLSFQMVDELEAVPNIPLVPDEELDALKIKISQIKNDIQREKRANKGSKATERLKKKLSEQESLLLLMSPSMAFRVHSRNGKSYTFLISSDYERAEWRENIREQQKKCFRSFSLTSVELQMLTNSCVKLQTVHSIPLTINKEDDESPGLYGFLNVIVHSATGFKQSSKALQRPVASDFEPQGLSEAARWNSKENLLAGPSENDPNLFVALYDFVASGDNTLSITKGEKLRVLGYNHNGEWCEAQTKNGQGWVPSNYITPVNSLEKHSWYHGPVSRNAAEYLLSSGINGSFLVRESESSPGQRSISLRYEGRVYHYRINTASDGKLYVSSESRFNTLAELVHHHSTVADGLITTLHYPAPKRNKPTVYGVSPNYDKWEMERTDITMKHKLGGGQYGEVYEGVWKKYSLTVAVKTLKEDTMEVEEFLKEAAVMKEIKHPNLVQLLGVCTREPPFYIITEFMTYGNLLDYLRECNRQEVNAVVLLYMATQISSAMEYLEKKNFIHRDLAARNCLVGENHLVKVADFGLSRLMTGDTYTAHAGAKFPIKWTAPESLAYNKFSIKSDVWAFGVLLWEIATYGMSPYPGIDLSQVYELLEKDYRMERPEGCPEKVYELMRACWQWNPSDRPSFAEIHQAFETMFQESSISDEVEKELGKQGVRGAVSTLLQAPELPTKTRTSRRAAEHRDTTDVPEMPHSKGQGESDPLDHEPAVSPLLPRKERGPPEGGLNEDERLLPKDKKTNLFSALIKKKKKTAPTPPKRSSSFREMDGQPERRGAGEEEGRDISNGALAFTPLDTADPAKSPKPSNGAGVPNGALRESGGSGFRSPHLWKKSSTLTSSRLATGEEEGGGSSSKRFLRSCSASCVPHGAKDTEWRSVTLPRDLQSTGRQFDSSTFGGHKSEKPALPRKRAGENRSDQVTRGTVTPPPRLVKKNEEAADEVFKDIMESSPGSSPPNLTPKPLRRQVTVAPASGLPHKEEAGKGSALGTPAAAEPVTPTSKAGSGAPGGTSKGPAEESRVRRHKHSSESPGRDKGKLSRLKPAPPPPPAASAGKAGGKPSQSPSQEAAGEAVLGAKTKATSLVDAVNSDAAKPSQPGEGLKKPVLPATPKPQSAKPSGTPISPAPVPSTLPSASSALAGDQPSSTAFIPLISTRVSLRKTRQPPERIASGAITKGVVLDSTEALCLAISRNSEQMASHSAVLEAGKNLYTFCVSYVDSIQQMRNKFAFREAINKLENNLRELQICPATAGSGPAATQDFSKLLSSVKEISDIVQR
T3 sequence (Q96SW2 whole entry, change not shown, further chain): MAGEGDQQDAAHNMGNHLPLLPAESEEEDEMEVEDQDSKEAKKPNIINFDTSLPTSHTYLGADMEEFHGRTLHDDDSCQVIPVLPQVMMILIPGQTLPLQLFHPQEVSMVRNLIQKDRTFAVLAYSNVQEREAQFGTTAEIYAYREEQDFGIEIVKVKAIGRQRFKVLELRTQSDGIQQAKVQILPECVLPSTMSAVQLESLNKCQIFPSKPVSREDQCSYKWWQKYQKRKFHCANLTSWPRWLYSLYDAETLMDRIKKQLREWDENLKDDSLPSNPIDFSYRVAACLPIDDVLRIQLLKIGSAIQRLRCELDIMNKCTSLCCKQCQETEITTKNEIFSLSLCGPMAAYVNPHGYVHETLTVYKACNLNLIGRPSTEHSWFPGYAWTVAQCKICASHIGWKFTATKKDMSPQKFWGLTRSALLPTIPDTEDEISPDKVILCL
T3 sequence (Q16531 whole entry partner): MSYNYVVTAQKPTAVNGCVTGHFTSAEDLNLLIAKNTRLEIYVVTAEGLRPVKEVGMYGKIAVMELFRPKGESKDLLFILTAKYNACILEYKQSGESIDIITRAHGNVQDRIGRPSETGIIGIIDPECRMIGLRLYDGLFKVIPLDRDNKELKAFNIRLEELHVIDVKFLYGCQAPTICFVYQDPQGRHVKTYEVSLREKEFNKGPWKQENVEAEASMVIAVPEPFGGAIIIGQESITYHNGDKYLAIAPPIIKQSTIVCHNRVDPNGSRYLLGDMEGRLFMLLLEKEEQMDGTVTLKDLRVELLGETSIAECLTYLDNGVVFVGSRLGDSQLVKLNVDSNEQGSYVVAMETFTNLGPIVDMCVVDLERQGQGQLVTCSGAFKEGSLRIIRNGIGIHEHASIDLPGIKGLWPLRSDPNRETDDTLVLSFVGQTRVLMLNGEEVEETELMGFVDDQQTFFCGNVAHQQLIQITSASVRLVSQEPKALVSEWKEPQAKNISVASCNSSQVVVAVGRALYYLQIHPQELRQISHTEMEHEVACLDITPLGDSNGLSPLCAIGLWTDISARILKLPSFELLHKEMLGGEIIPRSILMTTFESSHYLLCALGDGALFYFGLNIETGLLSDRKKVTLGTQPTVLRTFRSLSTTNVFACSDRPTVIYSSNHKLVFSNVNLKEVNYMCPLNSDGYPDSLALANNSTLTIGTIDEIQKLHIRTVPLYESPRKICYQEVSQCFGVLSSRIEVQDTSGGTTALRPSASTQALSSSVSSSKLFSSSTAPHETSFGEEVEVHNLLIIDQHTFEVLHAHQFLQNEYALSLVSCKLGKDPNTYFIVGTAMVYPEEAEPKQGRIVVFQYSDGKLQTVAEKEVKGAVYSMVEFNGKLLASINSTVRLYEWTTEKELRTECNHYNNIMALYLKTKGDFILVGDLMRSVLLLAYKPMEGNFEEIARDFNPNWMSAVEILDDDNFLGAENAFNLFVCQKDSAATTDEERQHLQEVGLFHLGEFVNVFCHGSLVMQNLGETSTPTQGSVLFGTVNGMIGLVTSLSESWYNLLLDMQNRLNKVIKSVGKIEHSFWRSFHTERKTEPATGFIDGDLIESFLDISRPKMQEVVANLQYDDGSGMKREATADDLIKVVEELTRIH

Compound | concentration from which degradation of c-ABL is observed [1] [µM] | decrease (degradation) of c-ABL [1] [%] | Kd [2] [nM] | Kd [4] [nM] | also measured
Cc1nc(Nc2ncc(C(=O)Nc3c(C)cccc3Cl)s2)cc(N2CCN(CCCCCCOCCOCCOCCOCCOCCOCC(=O)N[C@H](C(=O)N3C[C@H](O)C[C@H]3C(=O)NCc3ccc(-c4scnc4C)cc3)C(C)(C)C)CC2)n1 [DAS-6-(2-)5-2-VHL, N-(2-chloro-6-methylphenyl)-2-((6-(4-((S)-3-((2S,4R)-4-hydroxy-2-((4-(4-methylthiazol-5-yl)benzyl)carbamoyl)pyrrolidine-1-carbonyl)-2,2-dimethyl-5-oxo-7,10,13,16,19,22-hexaoxa-4-azaoctacosan-28-yl)piperazin-1-yl)-2-methylpyrimidin-4-yl)amino)thiazole-5-carboxamide] | ≥ 1 | – | – | – | –
Cc1nc(Nc2ncc(C(=O)Nc3c(C)cccc3Cl)s2)cc(N2CCN(CCCCCCOCCOCCOCCCCCC(=O)Nc3cccc4c3C(=O)N(C3CCC(=O)NC3=O)C4=O)CC2)n1 (centres unmarked) [DAS-6-2-2-6-CRBN, N-(2-chloro-6-methylphenyl)-2-((6-(4-(6-(2-(2-((6-((2-(2,6-dioxopiperidin-3-yl)-1,3-dioxoisoindolin-4-yl)amino)-6-oxohexyl)oxy)ethoxy)ethoxy)hexyl)piperazin-1-yl)-2-methylpyrimidin-4-yl)amino)thiazole-5-carboxamide] | – | > 85 | 0.6 | – | BCR-ABL degradation ([3]; at 1 μM PROTAC): > 60%
6-(2-(2-((6-(4-(3-((3-cyano-4-((2,4-dichloro-5-methoxyphenyl)amino)-6-methoxyquinolin-7-yl)oxy)propyl)piperazin-1-yl)hexyl)oxy)ethoxy)ethoxy)-N-(2-(2,6-dioxopiperidin-3-yl)-1,3-dioxoisoindolin-4-yl)hexanamide [BOS-6-2-2-6-CRBN] | – | – | – | – | c-ABL degradation ([1]; at 2.5 μM): > 90%; BCR-ABL degradation ([3]; at 2.5 μM): > 80%
Cc1nc(Nc2ncc(C(=O)Nc3c(C)cccc3Cl)s2)cc(N2CCN(CCCCCCOCCOCCOCCCCCC(=O)N[C@H](C(=O)N3C[C@H](O)C[C@H]3C(=O)NCc3ccc(-c4scnc4C)cc3)C(C)(C)C)CC2)n1 [DAS-6-2-2-6-VHL, N-(2-chloro-6-methylphenyl)-2-((6-(4-((S)-3-((2S,4R)-4-hydroxy-2-((4-(4-methylthiazol-5-yl)benzyl)carbamoyl)pyrrolidine-1-carbonyl)-2,2-dimethyl-5-oxo-11,14,17-trioxa-4-azatricosan-23-yl)piperazin-1-yl)-2-methylpyrimidin-4-yl)amino)thiazole-5-carboxamide] | ≥ 1 | > 65 | 0.92 | 0.47 | –

Now from value to compound, other results behind:

concentration from which degradation of c-ABL is observed [1] [µM] | decrease (degradation) of c-ABL [1] [%] | Kd [2] [nM] | Kd [4] [nM] | Compound | also measured
≥ 1 | – | – | – | Cc1nc(Nc2ncc(C(=O)Nc3c(C)cccc3Cl)s2)cc(N2CCN(CCCCCCOCCOCC(=O)N[C@H](C(=O)N3C[C@H](O)C[C@H]3C(=O)NCc3ccc(-c4scnc4C)cc3)C(C)(C)C)CC2)n1 [DAS-6-2-2-VHL, N-(2-chloro-6-methylphenyl)-2-((6-(4-(6-(2-(2-(((S)-1-((2S,4R)-4-hydroxy-2-((4-(4-methylthiazol-5-yl)benzyl)carbamoyl)pyrrolidin-1-yl)-3,3-dimethyl-1-oxobutan-2-yl)amino)-2-oxoethoxy)ethoxy)hexyl)piperazin-1-yl)-2-methylpyrimidin-4-yl)amino)thiazole-5-carboxamide] | –
≥ 1 | – | 2.6 | 1.3 | Cc1nc(Nc2ncc(C(=O)Nc3c(C)cccc3Cl)s2)cc(N2CCN(CCCCCCOCCCCCOCCCCCC(=O)N[C@H](C(=O)N3C[C@H](O)C[C@H]3C(=O)NCc3ccc(-c4scnc4C)cc3)C(C)(C)C)CC2)n1 [DAS-6-5-6-VHL, N-(2-chloro-6-methylphenyl)-2-((6-(4-(6-((5-((6-(((S)-1-((2S,4R)-4-hydroxy-2-((4-(4-methylthiazol-5-yl)benzyl)carbamoyl)pyrrolidin-1-yl)-3,3-dimethyl-1-oxobutan-2-yl)amino)-6-oxohexyl)oxy)pentyl)oxy)hexyl)piperazin-1-yl)-2-methylpyrimidin-4-yl)amino)thiazole-5-carboxamide] | –
